According to patent US20110189157A1, “USE OF HUMAN HYALURONIDASES FOR AXONAL REGROWTH” (priority 2008, published 2011):

Key:
[1] = tested on: damaged adult nigrostriatal tract; settings: rat, cited from earlier work
[2] = Chondroitinase activity assay: cleavage of biotin-labelled CS in solution, intact substrate detected on protamine-coated microplate; settings: 0.8-100 milliunits enzyme; biotin-CS 0.01 μg/ml; 37° C., 1 h; FIG. 3
Method: A solid phase, for example a microtiter plate, is coated with protamine by incubation of 100 μl/well of a 0.003% solution of protamine sulfate at 37° C. for 24 hours. Thereafter, plates were washed 3 times with A dest. and stored in the dark.
Plates were washed 3 times with buffer (PBS/0.01% Tween 20) and Avidin-POD (1 μg/ml in PBS/5% BSA) was added.
After 15 min plates were washed 5 times with PBS and 100 μl OPD-solution (0.667 mg/ml) was added.
After 15 min the reaction was stopped by addition of 100 μl of 0.5 Mol H2SO4. OD was measured at 490 nm using a microplate reader.
The enzyme reaction is carried out by mixing 50 μl of biotin-labelled CS at 0.01 μg/ml with increasing amounts of chondroitinase ABC, e.g. 0.8-100 nano-units of chondroitinase ABC. Samples were brought to a volume of 100 μl by addition of PBS.
This mixture is incubated at 37° C. for 1 h. Thereafter the enzyme was inactivated by heating at 100° C. for 10 min.
Samples (85 μl of the samples) were transferred to the CS-BP (protamine)-coated microplate and incubated for 1 hour at room temperature.
The enzyme reaction is carried out by mixing 50 μl of biotin-labelled CS at 0.01 μg/ml with increasing amounts of hyaluronidase, e.g. 0.8-100 milliunits of hyaluronidase. Samples were brought to a volume of 100 μl by addition of PBS.
This mixture is incubated at 37° C. for 1 h. […]

degradation of biotin-labelled chondroitin sulfate (decrease in signal, OD 490 nm) [2]	Substance	persistence of active enzyme in the injured CNS ([1]; in vivo)	axon regeneration ([1]; single dose injected adjacent to damaged nigrostriatal tract)
	chondroitinase ABC	at least 10 days	promoted axon regeneration
dose-dependent degradation	hyaluronidase		
